Reference: patent US11046688B2, “Inhibitor compounds” (Cancer Research Technology Limited, priority 2012, dated 2021)
pIC50: −log10 of the molar value.

Biological target: full length MPS1 (Homo sapiens (Human), UniProt P33981)
Experiment: Measurement of Inhibition of MPS1 Kinase (Caliper EZ reader, fluorescent labelled peptide H236)
Type: biochemical
Details: full length MPS1 12.5 nM or 3 nM, H236 peptide 5 μM, ATP 10 μM, 60 min at room temperature
Experimental: The reaction was carried out for 60 min at room temperature and stopped by the addition of buffer (10 μl) containing 20 mM EDTA, 0.05% (v/v) Brij-35, in 0.1M HEPES-buffered saline (Free acid, Sigma. UK). The plate was read on a Caliper EZ reader II (Caliper Life Sciences).
The % inhibition of the compounds is calculated relative to the means of selected control wells. […] The % inhibitions at each concentration are then fitted to a 4 parameter logistic fit: y=(a+((b−a)/(1+((c/x^d)))) where a=asym min, b=asym max, c=IC50 and d=hill coefficient

full length MPS1, sequence (P33981 whole entry): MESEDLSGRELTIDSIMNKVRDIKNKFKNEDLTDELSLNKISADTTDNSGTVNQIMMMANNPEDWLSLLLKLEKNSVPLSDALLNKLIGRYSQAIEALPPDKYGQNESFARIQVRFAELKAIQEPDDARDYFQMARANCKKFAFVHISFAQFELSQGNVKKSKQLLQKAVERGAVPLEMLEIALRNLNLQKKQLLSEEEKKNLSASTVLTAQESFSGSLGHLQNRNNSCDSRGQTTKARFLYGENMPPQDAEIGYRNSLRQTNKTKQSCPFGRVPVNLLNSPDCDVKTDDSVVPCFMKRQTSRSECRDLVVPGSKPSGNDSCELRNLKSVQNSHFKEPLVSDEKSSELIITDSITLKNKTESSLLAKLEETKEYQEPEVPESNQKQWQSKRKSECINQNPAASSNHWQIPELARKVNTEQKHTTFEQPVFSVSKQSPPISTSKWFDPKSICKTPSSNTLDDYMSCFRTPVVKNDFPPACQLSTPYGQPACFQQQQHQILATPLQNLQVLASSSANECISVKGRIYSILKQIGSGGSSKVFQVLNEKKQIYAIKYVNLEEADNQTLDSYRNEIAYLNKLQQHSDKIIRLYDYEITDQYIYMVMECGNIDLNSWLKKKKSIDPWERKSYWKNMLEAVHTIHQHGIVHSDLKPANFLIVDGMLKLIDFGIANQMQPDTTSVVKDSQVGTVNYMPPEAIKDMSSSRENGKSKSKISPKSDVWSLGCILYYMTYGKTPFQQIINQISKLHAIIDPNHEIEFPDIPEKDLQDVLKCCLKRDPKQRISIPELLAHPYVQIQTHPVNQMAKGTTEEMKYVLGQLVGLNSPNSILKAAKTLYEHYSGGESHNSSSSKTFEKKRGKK

Row | SMILES | pIC50
1 | COc1cc(-c2cnn(C)c2)ccc1Nc1ncc2c(C)cnc(NCC(C)(C)C)c2n1 [Example 149, N^2-(2-methoxy-4-(1-methyl-1H-pyrazol-4-yl)phenyl)-5-methyl-N^8-neopentylpyrido[3,4-d]pyrimidine-2,8-diamine] | 7.47
2 | COc1cc(-c2cn(C)nc2C)ccc1Nc1ncc2ccnc(NCC(C)(C)C)c2n1 [Example 48, N2-(4-(1,3-dimethyl-1H-pyrazol-4-yl)-2-methoxyphenyl)-N8-neopentylpyrido[3,4-d]pyrimidine-2,8-diamine] | 8.30
3 | COc1nc(-c2nnnn2C)ccc1Nc1ncc2ccnc(NCC(C)(C)OC)c2n1 [Example 161, N^8-(2-Methoxy-2-methylpropyl)-N^2-(2-methoxy-6-(1-methyl-1H-tetrazol-5-yl)pyridin-3-yl)pyrido[3,4-d]pyrimidine-2,8-diamine] | 7.51
4 | COc1cc(-c2cnn(C)c2C)ccc1Nc1ncc2ccnc(NCC(C)(C)C)c2n1 [Example 49, N2-(4-(1,5-dimethyl-1H-pyrazol-4-yl)-2-methoxyphenyl)-N8-neopentylpyrido[3,4-d]pyrimidine-2,8-diamine] | 8.30
